Results taken from ChEMBL document CHEMBL3870336, “The discovery of quinoline based single-ligand human H1 and H3 receptor antagonists” (Bioorg Med Chem Lett, 2016).
Activity calls are given as the source filed them. The rule behind the calls is not given here.

How the values were obtained:
[1] = target: T1, Histamine H1 receptor (Homo sapiens, UniProt P35367); assay: Antagonist activity at human Histamine H1 receptor expressed in CHO cells preincubated for 30 mins prior to histamine addition followed by subsequent washout and histamine challenge at 270 mins by Fluo-4 dye based FLIPR assay relative to azelastine; assay type: cell-based
[2] = target: hERG (KCNH2) (Homo sapiens, UniProt Q12809); assay: (§1) Displacement of [3H]-dofetilide from human ERG expressed in CHOK1 cell membranes incubated for 4 hrs in dark by luminescent assay; parameters: species or system CHO-K1; conditions: human, CHO-K1 cell membranes expressing human ERG, probe [3H]-dofetilide
[3] = target: T1, Histamine H1 receptor; assay: Antagonist activity at human Histamine H1 receptor expressed in CHO cells preincubated for 30 mins prior to histamine addition followed by subsequent washout and histamine challenge at 90 mins by Fluo-4 dye based FLIPR assay relative to azelastine; assay type: cell-based
[4] = target: T1, Histamine H1 receptor; assay: Antagonist activity at human Histamine H1 receptor expressed in CHO cells assessed as inhibition of histamine-induced calcium flux at 100 nM preincubated for 30 mins followed by histamine addition by Fluo-4-AM dye based FLIPR assay; assay type: functional, cell-based; conditions: read-out: pA2 (converted)
[5] = Lipophilicity, logD of compound at pH 7.4; assay type: physicochemical; conditions: buffer
[6] = target: T2, Alpha-1A adrenergic receptor (Homo sapiens, UniProt P35348); assay: Antagonist activity at adrenergic alpha1A receptor (unknown origin) expressed in Rat1 cells assessed as inhibition of phenylephrine-induced Ca2+ flux preincubated for 30 mins followed by phenylephrine addition by Fluo-4-AM-dye based FLIPR assay; assay type: cell-based
T2 sequence (P35348 whole entry): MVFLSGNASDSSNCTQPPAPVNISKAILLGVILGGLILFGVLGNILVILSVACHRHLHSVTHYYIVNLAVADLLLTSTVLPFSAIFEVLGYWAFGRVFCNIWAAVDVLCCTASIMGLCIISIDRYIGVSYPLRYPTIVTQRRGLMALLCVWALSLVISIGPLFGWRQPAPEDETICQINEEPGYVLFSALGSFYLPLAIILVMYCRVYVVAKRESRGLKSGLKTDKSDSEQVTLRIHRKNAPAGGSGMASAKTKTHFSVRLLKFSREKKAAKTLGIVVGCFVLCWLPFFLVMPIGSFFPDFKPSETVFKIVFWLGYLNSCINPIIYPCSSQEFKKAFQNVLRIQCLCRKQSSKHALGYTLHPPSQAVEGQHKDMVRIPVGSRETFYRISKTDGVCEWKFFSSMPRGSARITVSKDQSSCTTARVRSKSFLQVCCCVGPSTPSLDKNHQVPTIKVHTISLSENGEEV

[7] = target: Histamine H3 receptor (Homo sapiens, UniProt Q9Y5N1); assay: Antagonist activity at human Histamine H3 receptor expressed in CHO cell membranes assessed as inhibition of histamine-induced [35S]GTPgammaS binding after 2 to 6 hrs by scintillation proximity assay; assay type: functional
[8] = target: T1, Histamine H1 receptor; assay: Antagonist activity at human Histamine H1 receptor expressed in CHO cells assessed as inhibition of histamine-induced calcium flux preincubated for 30 mins followed by histamine addition by Fluo-4-AM dye based FLIPR assay; assay type: functional, cell-based
[9] = target: T3, Alpha-1B adrenergic receptor (Homo sapiens, UniProt P35368); assay: Antagonist activity at adrenergic alpha1B receptor (unknown origin) expressed in Rat1 cells assessed as inhibition of phenylephrine-induced Ca2+ flux preincubated for 30 mins followed by phenylephrine addition by Fluo-4-AM-dye based FLIPR assay; assay type: cell-based
T3 sequence (P35368 whole entry): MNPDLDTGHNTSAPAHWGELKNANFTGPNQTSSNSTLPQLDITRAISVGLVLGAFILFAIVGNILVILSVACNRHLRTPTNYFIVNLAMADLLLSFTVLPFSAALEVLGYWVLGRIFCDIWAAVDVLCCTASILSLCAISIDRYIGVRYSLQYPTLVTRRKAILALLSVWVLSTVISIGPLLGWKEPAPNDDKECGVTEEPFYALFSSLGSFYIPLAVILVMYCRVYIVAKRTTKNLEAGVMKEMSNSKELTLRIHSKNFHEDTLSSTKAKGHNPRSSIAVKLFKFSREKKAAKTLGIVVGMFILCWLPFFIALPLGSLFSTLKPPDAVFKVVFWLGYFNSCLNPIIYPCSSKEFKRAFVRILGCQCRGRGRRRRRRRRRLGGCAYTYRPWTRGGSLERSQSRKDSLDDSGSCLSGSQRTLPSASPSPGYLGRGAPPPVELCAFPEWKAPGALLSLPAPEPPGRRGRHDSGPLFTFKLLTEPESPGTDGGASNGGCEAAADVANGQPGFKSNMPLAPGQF

[10] = Ratio of drug level in brain to plasma in rat; assay type: ADME; conditions: brain and plasma, read-out: BPR
[11] = target: Voltage-gated inwardly rectifying potassium channel KCNH2 (Homo sapiens, UniProt Q12809); assay: as §1; parameters: species or system CHO-K1
Voltage-gated inwardly rectifying potassium channel KCNH2, sequence (Q12809 whole entry): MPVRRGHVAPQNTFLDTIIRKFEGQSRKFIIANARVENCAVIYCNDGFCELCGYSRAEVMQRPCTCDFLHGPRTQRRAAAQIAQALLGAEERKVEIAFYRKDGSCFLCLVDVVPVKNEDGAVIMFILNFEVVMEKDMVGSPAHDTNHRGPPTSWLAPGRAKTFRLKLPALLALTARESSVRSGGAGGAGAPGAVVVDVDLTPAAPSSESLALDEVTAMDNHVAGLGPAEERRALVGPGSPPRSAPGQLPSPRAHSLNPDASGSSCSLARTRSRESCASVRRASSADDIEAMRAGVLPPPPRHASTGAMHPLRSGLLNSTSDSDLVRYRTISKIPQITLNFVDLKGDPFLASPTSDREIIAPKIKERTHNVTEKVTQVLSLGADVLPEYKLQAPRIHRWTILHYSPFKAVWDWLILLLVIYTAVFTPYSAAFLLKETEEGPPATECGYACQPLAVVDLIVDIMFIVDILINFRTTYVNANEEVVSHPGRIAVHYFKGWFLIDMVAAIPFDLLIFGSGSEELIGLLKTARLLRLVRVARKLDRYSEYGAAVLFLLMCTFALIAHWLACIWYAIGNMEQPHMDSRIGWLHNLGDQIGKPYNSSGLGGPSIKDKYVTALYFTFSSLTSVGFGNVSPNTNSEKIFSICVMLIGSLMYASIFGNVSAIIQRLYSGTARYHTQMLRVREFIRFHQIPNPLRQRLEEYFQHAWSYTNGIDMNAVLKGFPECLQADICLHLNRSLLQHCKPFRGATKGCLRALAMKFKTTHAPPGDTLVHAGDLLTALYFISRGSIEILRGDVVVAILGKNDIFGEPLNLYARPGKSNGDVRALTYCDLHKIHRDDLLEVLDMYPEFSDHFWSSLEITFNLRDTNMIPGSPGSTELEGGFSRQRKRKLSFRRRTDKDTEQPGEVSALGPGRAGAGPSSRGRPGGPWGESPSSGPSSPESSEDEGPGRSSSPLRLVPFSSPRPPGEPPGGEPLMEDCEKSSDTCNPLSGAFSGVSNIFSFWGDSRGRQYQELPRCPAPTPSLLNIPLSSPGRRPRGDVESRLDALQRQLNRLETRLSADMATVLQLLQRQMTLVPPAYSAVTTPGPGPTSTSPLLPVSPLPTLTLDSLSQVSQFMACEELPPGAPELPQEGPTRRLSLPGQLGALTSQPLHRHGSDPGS

T1 sequence (P35367 whole entry): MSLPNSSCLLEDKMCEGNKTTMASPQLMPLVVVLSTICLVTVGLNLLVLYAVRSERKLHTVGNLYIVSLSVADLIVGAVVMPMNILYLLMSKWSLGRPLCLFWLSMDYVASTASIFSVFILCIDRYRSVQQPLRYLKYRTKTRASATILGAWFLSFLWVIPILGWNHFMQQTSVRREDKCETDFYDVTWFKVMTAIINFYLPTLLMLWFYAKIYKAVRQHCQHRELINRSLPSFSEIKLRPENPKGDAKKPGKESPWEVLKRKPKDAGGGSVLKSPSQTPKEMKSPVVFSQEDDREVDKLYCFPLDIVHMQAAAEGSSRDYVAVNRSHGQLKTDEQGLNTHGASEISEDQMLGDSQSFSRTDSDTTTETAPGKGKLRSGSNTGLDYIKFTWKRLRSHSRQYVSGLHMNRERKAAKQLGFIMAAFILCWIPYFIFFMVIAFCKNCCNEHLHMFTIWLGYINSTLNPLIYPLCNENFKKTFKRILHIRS
Histamine H3 receptor, sequence (Q9Y5N1 whole entry): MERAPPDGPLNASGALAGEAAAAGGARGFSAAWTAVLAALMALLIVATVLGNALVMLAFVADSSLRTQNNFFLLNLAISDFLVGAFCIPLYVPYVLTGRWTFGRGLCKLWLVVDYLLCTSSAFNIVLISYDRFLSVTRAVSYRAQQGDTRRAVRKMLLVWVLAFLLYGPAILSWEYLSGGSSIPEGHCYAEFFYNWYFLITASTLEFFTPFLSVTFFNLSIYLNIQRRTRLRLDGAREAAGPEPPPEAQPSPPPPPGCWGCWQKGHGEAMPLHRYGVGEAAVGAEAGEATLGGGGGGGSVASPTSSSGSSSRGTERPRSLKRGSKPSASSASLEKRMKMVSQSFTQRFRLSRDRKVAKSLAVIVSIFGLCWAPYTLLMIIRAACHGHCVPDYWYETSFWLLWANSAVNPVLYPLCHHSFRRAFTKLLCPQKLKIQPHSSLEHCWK
hERG (KCNH2), sequence (Q12809 whole entry): as the sequence (Q12809 whole entry) above

inhibition [1]	inhibition [3]	Kb [4] [nM]	logD [5]	Ki [6] [nM]	Ki [7] [nM]	Ki [8] [nM]	Ki [9] [nM]	Kp [10]	SMILES	IC50 at 4 h [2] [nM]	IC50 [11] [nM]
Active	Active								O=c1c2ccccc2c(Cc2ccc(Cl)cc2)nn1C[C@H]1CCCN1CCCCc1ccc(OCCCN2CCCCCC2)cc1 [GSK-1004723]	50.1	
			-0.78	> 2000	1.58	398	> 2000		O=C(O)c1cnc2c(N3CCN(CCc4ccc(OCCCN5CCCCCC5)cc4)CC3)cccc2c1		20000
Active	Active	5.01	2.2	79.4	0.631	15.8	50.1		c1cnc2c(N3CCN(CCCCc4ccc(OCCCN5CCCCCC5)cc4)CC3)cccc2c1		1580
			-0.12	> 2000	1.26	> 2510	> 2000		O=C(O)c1ccc2cccnc2c1N1CCN(CCc2ccc(OCCCN3CCCCCC3)cc2)CC1		
			0.34	63.1	1.58	200	79.4		O=C(O)/C=C/c1ccc2cccc(N3CCN(CCc4ccc(OCCCN5CCCCCC5)cc4)CC3)c2n1		> 63100
			-0.24	> 2000	1.58	> 2510	> 2000		O=C(O)c1ccnc2c(N3CCN(CCc4ccc(OCCCN5CCCCCC5)cc4)CC3)cccc12		> 63100
			-1	> 2000	2	> 2510	> 2000		O=C(O)c1cc(N2CCN(CCc3ccc(OCCCN4CCCCCC4)cc3)CC2)c2ncccc2c1		39800
			1.8	31.6	0.398	79.4	100		c1cnc2c(N3CCN(CCCc4ccc(OCCCN5CCCCCC5)cc4)CC3)cccc2c1		1000
Active	Active	10	1.9	7.94	0.501	20	15.8	> 13	c1cnc2c(N3CCN(CCc4ccc(OCCCN5CCCCCC5)cc4)CC3)cccc2c1		7940

The remaining lines, values behind:

SMILES	inhibition [1]	inhibition [3]	Kb [4] [nM]	logD [5]	Ki [6] [nM]	Ki [7] [nM]	Ki [8] [nM]	Ki [9] [nM]	Kp [10]	IC50 at 4 h [2] [nM]	IC50 [11] [nM]
O=C(O)CCc1ccc2cc(Cc3ccccc3)cc(N3CCN(CCc4ccc(OCCCN5CCCCCC5)cc4)CC3)c2n1		Active	6.31	1.9	50.1	0.316	25.1	251	0.15		6310
O=C(O)c1ccc2cccc(N3CCN(CCc4ccc(OCCCN5CCCCCC5)cc4)CC3)c2n1				-0.37	> 2000	0.501	251	> 2000			
CCCCc1cc(N2CCN(CCc3ccc(OCCCN4CCCCCC4)cc3)CC2)c2nc(CCC(=O)O)ccc2c1			1.58	2.3	316	0.794	12.6	398			2510
CCc1cc(N2CCN(CCc3ccc(OCCCN4CCCCCC4)cc3)CC2)c2nc(CCC(=O)O)ccc2c1			2.51	1	251	2	15.8	> 2000			
O=C(O)CCc1ccc2cccc(N3CCN(CCc4ccc(OCCCN5CCCCCC5)cc4)CC3)c2n1				0.18	> 2000	1.58	12.6	200			15800
O=C(O)CCc1cnc2c(N3CCN(CCc4ccc(OCCCN5CCCCCC5)cc4)CC3)cccc2c1				-0.63	> 2000	1.26	39.8	> 2000			31600
